The source of these data is PubChem BioAssay (NCI).

Each structure is given as a SMILES string. “And” between values parts separate entries of the source, which are not always exact repeats. Identical values can stand only once.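 Cultured in 96-well plates, cells were exposed to test compound for 48 hours across five concentrations. Here, GI50 denotes the concentration required for 50% inhibition of growth. TGI denotes the concentration required for complete inhibition of growth.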

Some test systems named below: KM12 colon; M14 melanoma; HT29 colon; A498 renal; SNB-75 CNS; UACC-62 melanoma; SW-620 colon; RXF 393 renal; NCI-H522 lung; MDA-MB-231 breast.
What all share (test): NCI-60 cell line screen, 48 h

Turning to `COc1cccc(/C=C/c2nc3c(cnn3-c3ccccc3)c(=O)[nH]2)c1`, the GI50 in the experiment on KM12 colon was 25.5 µM; in the experiment on M14 melanoma, more than 39 µM; in the experiment on HT29 colon, more than 59 µM; in the experiment with A498 renal, more than 100 µM; in the experiment with SNB-75 CNS it was more than 25 µM; with UACC-62 melanoma, more than 100 µM. Also, the GI50 with SW-620 colon was more than 31.4 µM; in the experiment on RXF 393 renal, 17.3 µM; in the experiment with NCI-H522 lung, more than 100 µM; in the experiment with MDA-MB-231 breast it was 50 µM. Further, the TGI in the experiment on KM12 colon was more than 100 µM; with M14 melanoma, more than 100 µM; in the experiment with HT29 colon, more than 100 µM; in the experiment with A498 renal, more than 100 µM; in the experiment with SNB-75 CNS, more than 89.3 µM; with UACC-62 melanoma it was more than 100 µM. The TGI in the experiment with SW-620 colon was more than 100 µM; with RXF 393 renal, 67.9 µM; in the experiment on NCI-H522 lung, more than 100 µM; in the experiment on MDA-MB-231 breast, more than 100 µM.

As for `O=[N+]([O-])c1cccc(-c2nc(-c3ccc(Cl)cc3Cl)cn2-c2ccccc2)c1`, the GI50 in the experiment with KM12 colon was 0.573 µM; in the experiment with M14 melanoma, 1.45 µM; with HT29 colon it was 1.25 µM; in the experiment with SNB-75 CNS it was 0.509 µM; with UACC-62 melanoma, 6.73 µM; with SW-620 colon, 0.617 µM. Moreover, the figures for the GI50 in the experiment with RXF 393 renal, with NCI-H522 lung and with MDA-MB-231 breast were 0.823 µM, 3.25 µM and 1.93 µM, respectively. Also, the TGI in the experiment on KM12 colon was 1.22 µM; with M14 melanoma, more than 14.9 µM; in the experiment with HT29 colon, 5.42 µM; in the experiment on A498 renal, more than 9.06 µM; with SNB-75 CNS, 1.34 µM; in the experiment on UACC-62 melanoma it was more than 33.3 µM. Besides, the TGI in the experiment with SW-620 colon was 1.22 µM; in the experiment on RXF 393 renal, 2.08 µM; in the experiment on NCI-H522 lung, more than 20.2 µM; in the experiment on MDA-MB-231 breast it was more than 20.5 µM.

For the molecule `CCOC(=O)Nc1nc2ccccc2[nH]1`, the GI50 with KM12 colon was 5.16 µM and 2.96 µM; in the experiment on M14 melanoma, 3.48 µM and 3.43 µM; with HT29 colon it was 3.96 µM and 3.99 µM; in the experiment with A498 renal, 2.42 µM and 3.81 µM; with SNB-75 CNS, 3.01 µM and 2.61 µM; in the experiment on UACC-62 melanoma, 5.38 µM and 4.46 µM. Also, the GI50 is 3.9 µM and 3.17 µM in the experiment with SW-620 colon; 3.89 µM in the experiment on RXF 393 renal; 3.78 µM and 4.99 µM in the experiment with NCI-H522 lung; 12.9 µM and 19.3 µM in the experiment on MDA-MB-231 breast. Moreover, the TGI is more than 100 µM in the experiment with KM12 colon; more than 100 µM in the experiment on M14 melanoma; more than 100 µM with HT29 colon; more than 28.8 µM in the experiment with A498 renal; more than 100 µM in the experiment with SNB-75 CNS; more than 100 µM in the experiment on UACC-62 melanoma. Besides, the TGI is more than 100 µM in the experiment with SW-620 colon, 43.6 µM in the experiment on RXF 393 renal, more than 79.3 µM in the experiment with NCI-H522 lung and more than 100 µM in the experiment with MDA-MB-231 breast.

`C=CC(COC(=O)C(C)(C)OC(C)=O)c1ccc(OC(=O)C(C)C)c(OC)c1` (centres undefined): the TGI in the experiment with KM12 colon was 15.5 µM; in the experiment on M14 melanoma, 21.8 µM; in the experiment on HT29 colon it was more than 36.1 µM; in the experiment with A498 renal, 37.7 µM; in the experiment on SNB-75 CNS, 22.2 µM; in the experiment on UACC-62 melanoma, 27.8 µM. In addition, the TGI with SW-620 colon came to 52.8 µM; with RXF 393 renal it was 19.7 µM; in the experiment with NCI-H522 lung, 6.38 µM; with MDA-MB-231 breast, 9.36 µM.

As to `CC(C)c1ccc(C2NC(=S)NC3=C2c2ccccc2C3=O)cc1` (centres undefined), the TGI with KM12 colon is more than 58.7 µM; in the experiment with M14 melanoma it was more than 57 µM; in the experiment with HT29 colon, more than 59 µM; in the experiment with A498 renal it was more than 60.8 µM; in the experiment with SNB-75 CNS it was 36.7 µM; with UACC-62 melanoma it was more than 52.8 µM. Also, the TGI is more than 78.2 µM with SW-620 colon, 23.9 µM in the experiment with RXF 393 renal, 41.9 µM in the experiment with NCI-H522 lung and 31 µM in the experiment with MDA-MB-231 breast.

As for `Cc1ccc(Nc2cc(Cl)c([N+](=O)[O-])cc2[N+](=O)[O-])cc1`, the GI50 in the experiment with KM12 colon is 3.24 µM; with M14 melanoma, 3.96 µM; in the experiment with HT29 colon, 3.04 µM; in the experiment on A498 renal, 13.3 µM; in the experiment on SNB-75 CNS, 3.91 µM; in the experiment on UACC-62 melanoma, 4.13 µM. Further, the GI50 was 2.35 µM with SW-620 colon, 2.57 µM in the experiment with RXF 393 renal, 0.805 µM with NCI-H522 lung and 4.42 µM in the experiment with MDA-MB-231 breast. Further, the TGI in the experiment on KM12 colon was 8.8 µM; in the experiment on M14 melanoma it was 15.6 µM; in the experiment on HT29 colon, 8.07 µM; in the experiment with A498 renal, 26.1 µM; in the experiment with SNB-75 CNS it was 17.5 µM; with UACC-62 melanoma, 15.6 µM. For the same molecule, the TGI came to 6.82 µM in the experiment with SW-620 colon, 6.66 µM in the experiment with RXF 393 renal, 2.15 µM in the experiment with NCI-H522 lung and 15.8 µM with MDA-MB-231 breast.

For the molecule `Cc1cc(-c2nnc(/C=C/c3ccc4c(c3)OCO4)o2)n[nH]1`, the GI50 with KM12 colon was 2.15 µM; in the experiment on M14 melanoma, 6.32 µM; with HT29 colon it was 13.8 µM; in the experiment with A498 renal, 7.54 µM; with SNB-75 CNS it was 9.02 µM; with UACC-62 melanoma it was 15.3 µM. In addition, the GI50 is 2.85 µM in the experiment on SW-620 colon, 20.9 µM in the experiment with RXF 393 renal, 8.15 µM with NCI-H522 lung and 16.9 µM with MDA-MB-231 breast. Also, the TGI with KM12 colon is more than 50 µM; in the experiment on M14 melanoma, 21.1 µM; with HT29 colon, 43.4 µM; in the experiment on A498 renal, 40.7 µM; in the experiment on SNB-75 CNS, 36.2 µM; in the experiment with UACC-62 melanoma, more than 50 µM. Moreover, the TGI in the experiment on SW-620 colon is 19.8 µM; in the experiment on RXF 393 renal it was more than 50 µM; with NCI-H522 lung, 26.7 µM; with MDA-MB-231 breast, more than 50 µM.

As to `CS(=O)(=O)Nc1cc(-c2ccc3ncnc(Nc4ccc(F)c(Cl)c4)c3c2)cnc1Cl`, the GI50 is 1.24 µM and 1.71 µM with KM12 colon; 0.477 µM and 0.718 µM in the experiment with M14 melanoma; 0.369 µM and 0.503 µM with HT29 colon; 0.199 µM and 0.13 µM in the experiment on A498 renal; 0.132 µM and 0.0697 µM in the experiment with SNB-75 CNS; 0.255 µM in the experiment with UACC-62 melanoma. In addition, the GI50 in the experiment with SW-620 colon was 0.741 µM and 1.01 µM; with RXF 393 renal, 0.563 µM and 0.31 µM; in the experiment on NCI-H522 lung, 0.4 µM and 0.815 µM; in the experiment with MDA-MB-231 breast, 0.98 µM and 1.07 µM. Further, the TGI is 3.39 µM and 8.13 µM in the experiment on KM12 colon; 4.53 µM and 6.29 µM in the experiment on M14 melanoma; 6.82 µM and 7.81 µM with HT29 colon; 0.664 µM and 0.555 µM in the experiment with A498 renal; 1.28 µM and 0.812 µM in the experiment on SNB-75 CNS; 1.56 µM with UACC-62 melanoma. For the same molecule, the TGI was 11.2 µM and 11.9 µM in the experiment on SW-620 colon; 4.07 µM and 1.71 µM in the experiment with RXF 393 renal; 3.9 µM and 9.8 µM with NCI-H522 lung; 3.21 µM and 5.92 µM with MDA-MB-231 breast.
